Source: ChEMBL document CHEMBL4359931, “Synthesis, biological evaluation and molecular docking studies of new amides of 4-bromothiocolchicine as anticancer agents” (Bioorg Med Chem, 2019)
The source made the active and inactive calls. The rule behind the calls is not given here.

Tests used:
BALB/3T3 = test: Antiproliferative activity against mouse BALB/3T3 cells assessed as reduction in cell viability incubated for 120 hrs by MTT assay; type: cell-based; details: BALB/3T3, 120 h
[1] = Cell cycle arrest in human ALL5 cells assessed as accumulation in S phase at 5 times of antiproliferative IC50 incubated for 72 hrs by propidium iodide based flow cytometry (reference value: 13.5 %); type: functional
[2] = Cell cycle arrest in human ALL5 cells assessed as accumulation in G1 phase at 5 times of antiproliferative IC50 incubated for 24 hrs by propidium iodide based flow cytometry (reference value: 68.1 %); type: functional
MCF7 [3] = test: Cell cycle arrest in human MCF7 cells assessed as accumulation in G2 phase at 5 times of antiproliferative IC50 incubated for 72 hrs by propidium iodide based flow cytometry (reference value: 18.6 %); type: functional
[4] = Selectivity index, ratio of IC50 of mouse BALB/3T3 cells to IC50 of human LoVo cells; type: toxicity; details: BALB/3T3 cells versus LoVo cells, read-out: Ratio IC50
MCF7 [5] = test: Cell cycle arrest in human MCF7 cells assessed as accumulation in G2 phase at 5 times of antiproliferative IC50 incubated for 24 hrs by propidium iodide based flow cytometry (reference value: 22.4 %); type: functional
[6] = Cell cycle arrest in human ALL5 cells assessed as accumulation in G2 phase at 5 times of antiproliferative IC50 incubated for 72 hrs by propidium iodide based flow cytometry (reference value: 11.3 %); type: functional
[7] = Cell cycle arrest in human ALL5 cells assessed as accumulation in subG1 phase at 5 times of antiproliferative IC50 incubated for 24 hrs by propidium iodide based flow cytometry (reference value: 10.5 %); type: functional
[8] = Selectivity index, ratio of IC50 of mouse BALB/3T3 cells to IC50 of human ALL5 cells
Homo sapiens [9] = species: Homo sapiens; test: Induction of cell death in human ALL5 cells assessed as decrease in 4 N DNA at 5 times of antiproliferative IC50 incubated for 72 hrs by propidium iodide based flow cytometry; type: functional
Homo sapiens [10] = species: Homo sapiens; test: Induction of cell cycle arrest in human ALL5 cells assessed as increase in 4 N DNA at 5 times of antiproliferative IC50 incubated for 24 hrs by propidium iodide based flow cytometry; type: functional
MCF7 [11] = test: Cell cycle arrest in human MCF7 cells assessed as accumulation in S phase at 5 times of antiproliferative IC50 incubated for 48 hrs by propidium iodide based flow cytometry (reference value: 34 %); type: functional
MCF7 [12] = test: Cell cycle arrest in human MCF7 cells assessed as accumulation in G1 phase at 5 times of antiproliferative IC50 incubated for 24 hrs by propidium iodide based flow cytometry (reference value: 49.9 %); type: functional
[13] = Cell cycle arrest in human ALL5 cells assessed as accumulation in S phase at 5 times of antiproliferative IC50 incubated for 24 hrs by propidium iodide based flow cytometry (reference value: […]); type: functional
[14] = Cell cycle arrest in human ALL5 cells assessed as accumulation in G1 phase at 5 times of antiproliferative IC50 incubated for 72 hrs by propidium iodide based flow cytometry (reference value: 59.7 %); type: functional
[15] = Selectivity index, ratio of IC50 of mouse BALB/3T3 cells to IC50 of human A549 cells
Homo sapiens [16] = species: Homo sapiens; test: Induction of cell cycle arrest in human ALL5 cells assessed as increase in 4 N DNA at 5 times of antiproliferative IC50 incubated for 48 hrs by propidium iodide based flow cytometry; type: functional
[17] = Cell cycle arrest in human ALL5 cells assessed as accumulation in subG1 phase at 5 times of antiproliferative IC50 incubated for 48 hrs by propidium iodide based flow cytometry (reference value: 11 %); type: functional
MCF7 [18] = test: Antiproliferative activity against human MCF7 cells assessed as reduction in cell viability incubated for 120 hrs by MTT assay; type: functional, cell-based; details: MCF7, 120 h
[19] = Antiproliferative activity against human ALL5 cells assessed as reduction in cell viability incubated for 120 hrs by MTT assay; type: functional, cell-based; details: ALL5, 120 h
[20] = Cell cycle arrest in human ALL5 cells assessed as accumulation in G2 phase at 5 times of antiproliferative IC50 incubated for 48 hrs by propidium iodide based flow cytometry (reference value: 11.2 %); type: functional
[21] = Cell cycle arrest in human ALL5 cells assessed as accumulation in G1 phase at 5 times of antiproliferative IC50 incubated for 48 hrs by propidium iodide based flow cytometry (reference value: 67.4 %); type: functional
[22] = Cell cycle arrest in human ALL5 cells assessed as accumulation in subG1 phase at 5 times of antiproliferative IC50 incubated for 72 hrs by propidium iodide based flow cytometry (reference value: 15.5 %); type: functional
[23] = Cell cycle arrest in human ALL5 cells assessed as accumulation in S phase at 5 times of antiproliferative IC50 incubated for 48 hrs by propidium iodide based flow cytometry (reference value: 10.3 %); type: functional
[24] = Selectivity index, ratio of IC50 of mouse BALB/3T3 cells to IC50 of human MCF7 cells; type: toxicity; details: BALB/3T3 cells versus MCF7 cells, read-out: Ratio IC50
MCF7 [25] = test: Cell cycle arrest in human MCF7 cells assessed as accumulation in G1 phase at 5 times of antiproliferative IC50 incubated for 48 hrs by propidium iodide based flow cytometry (reference value: 40.8 %); type: functional
MCF7 [26] = test: Cell cycle arrest in human MCF7 cells assessed as accumulation in S phase at 5 times of antiproliferative IC50 incubated for 72 hrs by propidium iodide based flow cytometry (reference value: 19.8 %); type: functional
[27] = Cell cycle arrest in human ALL5 cells assessed as accumulation in G2 phase at 5 times of antiproliferative IC50 incubated for 24 hrs by propidium iodide based flow cytometry (reference value: 10.6 %); type: functional
MCF7 [28] = test: Cell cycle arrest in human MCF7 cells assessed as accumulation in S phase at 5 times of antiproliferative IC50 incubated for 24 hrs by propidium iodide based flow cytometry (reference value: 19.9 %); type: functional
[29] = Resistance index, ratio of IC50 of human LoVo/DX cells to IC50 of human LoVo cells; type: functional
MCF7 [30] = test: Cell cycle arrest in human MCF7 cells assessed as accumulation in subG1 phase at 5 times of antiproliferative IC50 incubated for 72 hrs by propidium iodide based flow cytometry (reference value: 3.59 %); type: functional
LoVo = test: Antiproliferative activity against human LoVo cells assessed as reduction in cell viability incubated for 120 hrs by MTT assay; type: functional, cell-based
[31] = Selectivity index, ratio of IC50 of mouse BALB/3T3 cells to IC50 of human LoVo/DX cells; type: toxicity; details: BALB/3T3 cells versus LoVo/DX cells, read-out: Ratio IC50
MCF7 [32] = test: Cell cycle arrest in human MCF7 cells assessed as accumulation in subG1 phase at 5 times of antiproliferative IC50 incubated for 48 hrs by propidium iodide based flow cytometry (reference value: 9.19 %); type: functional
MCF7 [33] = test: Cell cycle arrest in human MCF7 cells assessed as accumulation in G1 phase at 5 times of antiproliferative IC50 incubated for 72 hrs by propidium iodide based flow cytometry (reference value: 58 %); type: functional
MCF7 [34] = test: Cell cycle arrest in human MCF7 cells assessed as accumulation in subG1 phase at 5 times of antiproliferative IC50 incubated for 24 hrs by propidium iodide based flow cytometry (reference value: 7.79 %); type: functional
MCF7 [35] = test: Cell cycle arrest in human MCF7 cells assessed as accumulation in G2 phase at 5 times of antiproliferative IC50 incubated for 48 hrs by propidium iodide based flow cytometry (reference value: 16 %); type: functional
A549 = test: Antiproliferative activity against human A549 cells assessed as reduction in cell viability incubated for 120 hrs by MTT assay; type: functional, cell-based; details: A549, 120 h
[36] = Antiproliferative activity against human LoVo/DX cells assessed as reduction in cell viability incubated for 120 hrs by MTT assay; type: functional, cell-based
Homo sapiens [37] = species: Homo sapiens; test: Induction of apoptosis in human ALL5 cells assessed as increase in 85 kDa PARP expression at 0.2 uM incubated for 24 and 48 hrs by immunoblot analysis; type: functional, cell-based
Homo sapiens [38] = species: Homo sapiens; test: Induction of apoptosis in human ALL5 cells assessed as reduction in 116 kDa PARP expression at 0.2 uM incubated for 24 and 48 hrs by immunoblot analysis; type: functional, cell-based

Structure (SMILES)	IC50 (BALB/3T3)	Activity [1]	Activity [2]	Activity (MCF7 [3])	Activity (MCF7 [5])	Activity [6]	Activity [7]	Activity (MCF7 [11])	Activity (MCF7 [12])	Activity [13]	Activity [14]	Activity [17]	IC50 [19]	Activity [20]	Activity [21]	Activity [22]	Activity [23]	Activity (MCF7 [25])	Activity (MCF7 [26])	Activity [27]	other results
COc1c(Br)c2c(c(OC)c1OC)-c1ccc(SC)c(=O)cc1[C@@H](NC(=O)C(C)C)CC2	20.4 nM	22.5%	52.5%	57.5%	78%	7.59%	18%	10.6%	12%	13.7%	23%	31.9%	8.6 nM	20%	32.1%	46.9%	15.9%	11.4%	15.4%	15.8%	selectivity ratio [4]: 2.9; Ratio IC50 [8]: 2.4; Activity (Homo sapiens [9]): Active; Activity (Homo sapiens [10]): Active; Ratio IC50 [15]: 2; Activity (Homo sapiens [16]): Active; IC50 (MCF7 [18]): 11.5 nM; selectivity ratio [24]: 1.8; Activity (MCF7 [28]): 5.16%; Ratio IC50 [29]: 10.8; Activity (MCF7 [30]): 17.5%; IC50 (LoVo): 7 nM; selectivity ratio [31]: 0.3; Activity (MCF7 [32]): 11.8%; Activity (MCF7 [33]): 9.6%; Activity (MCF7 [34]): 4.89%; Activity (MCF7 [35]): 66.3%; IC50 (A549): 10.2 nM; IC50 [36]: 75.9 nM
CCC(=O)N[C@H]1CCc2c(Br)c(OC)c(OC)c(OC)c2-c2ccc(SC)c(=O)cc21	11.2 nM	19.5%	52.4%	53.8%	74.3%	8.93%	17.4%	8.78%	12%	12.9%	25.7%	33%	8.5 nM	17.5%	35%	45.8%	14.5%	15%	16.3%	17.2%	selectivity ratio [4]: 1.6; Ratio IC50 [8]: 1.3; Activity (Homo sapiens [9]): Active; Activity (Homo sapiens [10]): Active; Ratio IC50 [15]: 1.1; Activity (Homo sapiens [16]): Active; IC50 (MCF7 [18]): 11.2 nM; selectivity ratio [24]: 1; Activity (MCF7 [28]): 7.61%; Ratio IC50 [29]: 12.1; Activity (MCF7 [30]): 17.7%; IC50 (LoVo): 7.2 nM; selectivity ratio [31]: 0.1; Activity (MCF7 [32]): 12.5%; Activity (MCF7 [33]): 12.2%; Activity (MCF7 [34]): 6.15%; Activity (MCF7 [35]): 63.7%; IC50 (A549): 10.5 nM; IC50 [36]: 87.2 nM
COc1cccc2c1C(=O)c1c(O)c3c(c(O)c1C2=O)C[C@@](O)(C(=O)CO)C[C@@H]3O[C@H]1C[C@H](N)[C@H](O)[C@H](C)O1 [DOXORUBICIN]	166 nM	16.9%	66.3%	32.5%	30.5%	9.99%	1.55%	18.3%	47.3%	7.16%	36.5%	21%	39.1 nM	5.52%	67.6%	36.6%	2.77%	43.3%	14.1%	22%	Activity (Homo sapiens [37]): Active; Activity (MCF7 [28]): 16.9%; Activity (MCF7 [30]): 18.3%; Activity (MCF7 [32]): 6.08%; Activity (MCF7 [33]): 35.1%; Activity (MCF7 [34]): 5.28%; Activity (MCF7 [35]): 32.4%; IC50 (A549): 258 nM; Activity (Homo sapiens [38]): Active
